Source: patent US9688709B2, “Phosphaplatins and their use for treatment of cancers” (OHIO UNIVERSITY, priority 2010, dated 2017)
Several values for one entry are separate records, joined by “and”; a condition that tells them apart may be missing. Equal values may be shown once.

How the values were obtained:
[1] = test system: human ovarian cancer OVCAR-10 xenograft; assay: In vivo efficacy, OVCAR-10 mouse xenograft; set-up: species or system mice; conditions: 60 mg/kg qodx3, time to tumor size 1000 mm^3, compared with control
Method: Stable human clonal ovarian cancer cell lines OVCAR-10 and head and neck cancer UMSCC10b were grown separately in cell culture until 80-90% confluency was reached. Trypsin (GIBCO/BRL, Grand Island, N.Y.) was used to detach adherent cells. Trypsinized cells were thoroughly washed with PBS (Phosphate Buffered Saline) to remove trypsin. Efficacy of phosphaplatin compounds were evaluated by subcutaneously implanting human OVCAR-10 and UMSCC-10b xenograft in SCID Hairless OutBred, SHO-Prkdc^scidHr^hr, (Charles River Labs, Wilmington, Mass.) mice, NIH (NIH III: NIHBNX-F; NIHS-Lystbg Foxnlnu Btkxid, 4-week old female, Taconic (Rensselaer, N.Y.) mice.
Female SCID/NIH mice 4-5 weeks old were acclimated for one week before initiation of efficacy trials. Cancer cells were re-suspended in PBS and all mice except for negative control mice were injected subcutaneously with from 1×10^6 cells/0.10 mL to 5×10^6 cells/0.10 mL in PBS. The tumor size was evaluated as a function of time. The mice were examined daily for tumor growth. Tumors were measured using digital calipers. The tumor volume was calculated by the formula (W^2×L)/2, where W is the tumor measurement at the widest point, and L is the tumor dimension at the longest point, where the volume of the tumor in mm^3 is equivalent to the weight in mg.
After approximately 2 weeks of the subcutaneous injection of cancer cells, the tumors that had reached a distinguishable tumor sizes (approximately 100 mm^3 to 200 mm^3), phosphaplatin compounds of desired doses were administered intra-peritoneally. These administrations were done one time on day 1, once on day 3, and once on day 5.
Each group of xenograft mice was treated with phosphaplatin compounds, and a matched set was treated with vehicle/placebo (PBS solution) and mock injection (as a control for stress response). […] The xenograft SCID mice/NIH were monitored every day for any adverse events in their health by measuring weight loss/gain and food consumption. Measurements were stopped and the study was ended when the tumor size exceeded 3000 mm^3. […]

[2] = test system: A2780, epithelial human ovarian cancer; assay: Clonogenic assay, A2780 cells; format: cell-based
Method: (§1) To determine the relative activities of the phosphaplatins of formulas (I)-(VI), each stereoisomer was tested through in vitro clonogenic assays using human ovarian cancer cells, human colon cancer cells, and human head-and-neck cancer cells. […] Cells were cultured on monolayer using RPMI 1640 supplemented with 10% fetal bovine serum, 2 mM glutamine, 0.25 units/mL insulin and penicillin/streptomycin (100 units/mL) in a 37° C. incubator continuously gassed with 5% CO2. Cells were subcultured using 0.0625% trypsin in HBSS to maintain cells in exponential cell growth.
Half-maximal inhibitory concentration (IC50) values were determined using a clonogenic assay or a CyQUANT® cell proliferation assay. In the clonogenic assay, for example, 500-700 A2780 cells from a single cell suspension were plated onto 60 mm petri plates 24 hours before treatment with the platinum compounds to permit cell attachment. On the day of treatment with the platinum compounds described in the above Synthesis Examples, the medium was decanted and was replaced with the appropriate concentration of phosphaplatin compounds (from 50 nM to 75 μM) at three different time points, […] Triplicate plates were set up for each platinum compound concentration. […] These plates were returned to the 37° C. incubator for 7 days for colony formation.
(§2) In TABLES 1-5, except where actual error values are given, each reported value is assumed to have an error not greater than ±15% of the reported value; and unless otherwise specified, the data were obtained from clonogenic assays.
(§3) In further tests, cells were treated with the platinum compounds continuously for 7 days. Colonies were fixed and stained using 2% crystal violet in 4% formaldehyde. Colonies containing more than 50 cells were scored. The number of scored colonies from the triplicate plates was averaged, and this number was divided by the number of cells plated to obtain a value for the fraction of cells forming colonies. These values for fraction of cells forming colonies then were corrected for plating efficiency by dividing the fraction by the number of cells forming colonies in plates that were not treated with platinum compounds. […] Similar data for OVCAR-10 are shown in FIG. 3, comparing (1R,2R)-pyrodach-2 (RD2), (1R,2R)-pyrodach-4 (RD4), trans-(±)-pyrodach-2 (T-D2), and trans-(±)-pyrodach-4 (T-D4).

[3] = Maximum tolerated dose toxicity in ICR (CD-1) mice; format: in vivo; conditions: dose of 60 mg/kg
Method: Escalating doses were administered from 10 mg/kg to 100 mg/kg in 4-5 week-old female ICR (CD-1) mice, Taconic (Rensselaer, N.Y.). The mice had body weights between 15 g and 24 g. The mice were injected with one of the phosphaplatins every other day in a three-dose regimen. Total body-weight loss of 20% or more, unthrifty appearance, failure to gain weight, other observable health issues, departures from normal behaviors, or death, were considered an adverse event.

Ovarian tumor = Ovarian tumor inflicted SCID mice, tumor growth and log cell kill; format: in vivo
Method: Ovarian tumor inflicted SCID mice were treated with trans-(±)-pyrodach-2 and trans-(±)-pyrodach-4 at various doses up to 40 mg/kg, and tumor growth was monitored up to six weeks or until the tumor size became so large that these animals were sacrificed. The tumor growth or regression by the phosphaplatin-treated mice was then compared with cisplatin-treated mice (7 mg/kg) and carboplatin-treated mice (60 mg/kg). Three doses of platinum compounds were administered on alternate days when the tumor grew to a size of at least 100 mm^3 size. Gross and net log cell kill values were then calculated using the formulas:
[formula] [formula] where T and C are median times in days to grow tumor to a specified size, and Td is the median time in days to double the size of the tumor in control animals.

[4] = test system: A2780/C30, epithelial human ovarian cancer resistant to 30 μM cisplatin and 100 μM carboplatin; assay: Clonogenic assay, A2780/C30 cells; format: cell-based; conditions: A2780/C30, 1 hour treatment
Method: as §1
Half-maximal inhibitory concentration (IC50) values were determined using a clonogenic assay or a CyQUANT® cell proliferation assay. In the clonogenic assay, for example, 500-700 A2780 cells from a single cell suspension were plated onto 60 mm petri plates 24 hours before treatment with the platinum compounds to permit cell attachment. On the day of treatment with the platinum compounds described in the above Synthesis Examples, the medium was decanted and was replaced with the appropriate concentration of phosphaplatin compounds (from 50 nM to 75 μM) at three different time points, […] Triplicate plates were set up for each platinum compound concentration. After the 24-hour treatment, the medium containing the platinum compounds was decanted and was replaced with fresh medium. These plates were returned to the 37° C. incubator for 7 days for colony formation.
as §2, §3

[5] = test system: OVCAR-10, human ovarian cancer resistant to cisplatin treatment; assay: Clonogenic assay, OVCAR-10 cells; format: cell-based; conditions: OVCAR-10, 24 hours treatment
Method: as §1
Half-maximal inhibitory concentration (IC50) values were determined using a clonogenic assay or a CyQUANT® cell proliferation assay. In the clonogenic assay, for example, 500-700 A2780 cells from a single cell suspension were plated onto 60 mm petri plates 24 hours before treatment with the platinum compounds to permit cell attachment. On the day of treatment with the platinum compounds described in the above Synthesis Examples, the medium was decanted and was replaced with the appropriate concentration of phosphaplatin compounds (from 50 nM to 75 μM) at three different time points, and the treated cells were placed back into the 37° C. incubator for 24 hours. Triplicate plates were set up for each platinum compound concentration. After the 24-hour treatment, the medium containing the platinum compounds was decanted and was replaced with fresh medium. These plates were returned to the 37° C. incubator for 7 days for colony formation.
as §2, §3

BAX = assay: Western blot protein expression, BAX; format: in vivo; conditions: treated mice, exposure 1 hour to 12 hours
Method: (§4) Following 12% SDS-PAGE electrophoresis, proteins were transferred to a PVDF membrane using 100 V for 1.5 hours at 4° C. Membranes were washed with 0.05% TWEEN-20 and Tris-buffered saline (TBST) solution and blocked with 5% non-fat dry milk and 1% BSA. The membrane was incubated with a 1:25,000 dilution of primary antibody of the protein of interest over night at 4° C. Membranes were washed with 0.05% TBST followed by incubating in the corresponding HRP-conjugated antibody (1:40,000 dilution). The proteins were visualized using ECL-Advance chemiluminescent system (Amersham-GE Healthcare Biosciences, Pittsburgh, Pa.).
(§5) The phosphaplatins activate a number of proapototic and tumor suppression genes such as FAS, PTEN, PUMA, BAX and others. Experiments through Western Blots confirm high levels of protein expressions transcribed by these genes. […] Likewise, BCL2 was down regulated as much as 70% by RR-pyrodach-2 and RR-pyrodach-4. Additionally, FAS, FADD, and platinum compound were co-localized in the lipid rafts. These activations are also associated with the increased expression of Sphingomyelinase (Smase), as verified by the increased protein expression of SMase.

FAS = assay: Western blot protein expression, FAS; format: in vivo; conditions: treated mice, exposure 1 hour to 12 hours
Method: as §4, §5

[6] = test system: U251, human glioblastoma cancer cells; assay: CyQUANT cell proliferation assay, U251; format: cell-based; conditions: U251, 72-hour treatment
Excerpt: (§6) In these experiments, desired number of cells were exposed to phosphaplatins of different concentrations for 72 hr. before measuring the DNA content. Because the DNA content is proportional to the number of surviving cells, the assay provides a quantitative measure of proliferating cells. The technique is described in detail in Jones et al., “Sensitive determination of cell number using the CyQUANT cell proliferation assay,” J. Immunol. Methods, vol. 254, pp. 85-98 (2001).
as §2

[7] = test system: SKMEL-2, human skin melanoma cancer cells; assay: CyQUANT cell proliferation assay, SKMEL-2; format: cell-based; conditions: SKMEL-2, 72-hour treatment
Excerpt: as §6, §2

VEGFR = assay: Western blot protein expression, VEGFR; format: in vivo; conditions: treated mice, exposure 1 hour to 12 hours
Method: as §4, §5

[8] = test system: A549, human lung adenocarcinoma cancer cells; assay: CyQUANT cell proliferation assay, A549; format: cell-based; conditions: A549, 72-hour treatment
Excerpt: as §6, §2

[9] = test system: OVCAR-8, human ovarian cancer cells with dysfunctional p53; assay: CyQUANT cell proliferation assay, OVCAR-8; format: cell-based; conditions: OVCAR-8, 72-hour treatment
Excerpt: as §6, §2

PUMA = assay: Western blot protein expression, PUMA; format: in vivo; conditions: treated mice, exposure 1 hour to 12 hours
Method: as §4, §5

[10] = test system: PC-3, human metastatic prostate cancer cells; assay: CyQUANT cell proliferation assay, PC-3; format: cell-based; conditions: PC-3, 72-hour treatment
Excerpt: as §6, §2

[11] = test system: OVCAR-10, human ovarian cancer resistant to cisplatin treatment; assay: CyQUANT cell proliferation assay, OVCAR-10; format: cell-based; conditions: OVCAR-10, 72-hour treatment
Excerpt: as §6, §2

[12] = test system: head and neck cancer cell line UMSCC10b; assay: 144 hour exposure IC50, UMSCC10b; format: cell-based, human
Method: (§7) Additionally these isomeric compounds were also tested by exposing them for 144 hours in the following cell lines: UMSCC10b, Panc-1, UMSCC15s, A2780/C30 and HCC1806.

[13] = test system: UMSCC10b/15s, cisplatin-resistant human head-and-neck cancer cell line; assay: Clonogenic assay, UMSCC10b/15s cells; format: cell-based; conditions: 7-day treatment
Method: as §1
(§8) Half-maximal inhibitory concentration (IC50) values were determined using a clonogenic assay or a CyQUANT® cell proliferation assay. In the clonogenic assay, for example, 500-700 A2780 cells from a single cell suspension were plated onto 60 mm petri plates 24 hours before treatment with the platinum compounds to permit cell attachment. […]
(§9) In further tests, cells were treated with the platinum compounds continuously for 7 days. […] Colonies containing more than 50 cells were scored. The number of scored colonies from the triplicate plates was averaged, and this number was divided by the number of cells plated to obtain a value for the fraction of cells forming colonies. […]

[14] = test system: OVCAR-5, advanced human ovarian cancer cells; assay: Clonogenic assay, OVCAR-5 cells; format: cell-based; conditions: OVCAR-5, 24 hours treatment
Method: as §1, §8, §9

[15] = test system: pancreatic cell line Panc-1; assay: 144 hour exposure IC50, Panc-1; format: cell-based; conditions: Panc-1, 144 hours exposure
Method: as §7

[16] = test system: breast cancer cell line HCC1806; assay: 144 hour exposure IC50, HCC1806; format: cell-based; conditions: HCC1806, 144 hours exposure
Method: as §7

[17] = 40 mg/kg, three doses on alternate days

| Compound | IC50 ([2]; A2780, 1 hour treatment) | IC50 ([2]; A2780, 24 hours treatment) | IC50 [4] | IC50 [5] | IC50 [6] | IC50 [7] | IC50 [8] | IC50 [9] | IC50 [10] | IC50 [11] | other results |
| --- | --- | --- | --- | --- | --- | --- | --- | --- | --- | --- | --- |
| N.N.O=C([O-])C1(C(=O)[O-])CCC1.[Pt+2] [carboplatin] | 90 µM | > 60 µM | > 200 µM | 26.7 µM | – | – | – | – | – | – | percent increased life-span (% ILS) [1]: about 125%; death [3]: 33%; population died (Ovarian tumor; 60 mg/kg dose): more than 50%; log cell kill values (Ovarian tumor; 60 mg/kg, three doses on alternate days): less than 2 |
| trans-(±)-1,2-cyclohexanediamine-trans-dihydroxo(pyrophosphato) platinum(IV) [trans-(±)-pyrodach-4] | 180 µM and 170 µM | – | 155 ± 20 µM | 14.4 µM | 14.6 µM | 14.6 µM | 12.2 µM | 12.3 µM | 20 µM | 23.2 µM | upregulation of BAX (BAX): up to 4 fold; upregulation of FAS (FAS): up to 25 fold; down regulation of VEGFR (VEGFR): up to 50%; gross log cell kill (Ovarian tumor; [17]): greater than 3; log net cell kill (Ovarian tumor; [17]): greater than 2; upregulation of PUMA (PUMA): up to 5 fold |
| NC1CCCCC1N.O=P([O-])(O)OP(=O)([O-])O.[Pt+2] (racemic) [trans-(±)-pyrodach-2, trans-(±)-1,2-cyclohexanediamine(pyrophosphato) platinum(II)] | 22 ± 4 µM | 2.4 ± 0.2 µM | 48 ± 5 µM | 4.6 µM | 10.1 µM | 8.3 µM | 11.1 µM | 9.4 µM | 24.5 µM | 11.8 µM | IC50 [12]: 8.9 µM; IC50 [13]: 5 µM; IC50 [14]: 12.2 µM; IC50 [15]: 18.5 µM; IC50 [16]: > 30 µM |
